# Test results as given in patent US10131679B2, “Substituted dihydropyrrolopyrazole compound” (UBE INDUSTRIES, LTD., priority 2014, dated 2018).
# Tested on: mouse imiquimod-induced psoriasis model
# Assay: Ear thickening suppression test using mouse imiquimod-induced psoriasis model
# Assay type: in vivo
# Conditions: topical, 120 h, application of a 1% solution in methanol for 4 days, thickness measured on day 5, BALB/c mice, read-out: rate of inhibition of increase in right auricle thickness
# Description: Ear Thickening Suppression Test Using Mouse Imiquimod-Induced Psoriasis Model
# An imiquimod-induced psoriasis model test was carried out by modifying the method of Leslie van der Fits et al. (J. Immunol. 182, 5836 (2009)). BALB/c mice were used (female, supplied by Charles River Laboratories Japan, Inc.) as laboratory animals. On the start day of the test, the thicknesses of the right auricles of the mice were measured with a thickness gauge (model SMD-565J manufactured by TECLOCK Corp.). A test compound solution or only a solvent was applied or orally administered, and after 60 minutes, 5 mg of imiquimod (Beselna Cream 5% manufactured by Mochida Pharmaceutical Co., Ltd.) was applied to the insides of the right auricles. The test compound solution or solvent administration and the imiquimod application were carried out for 4 days, and the thicknesses of the right auricles were measured again on day 5. When increase in the thicknesses of the right auricles of the solvent-administered group on day 5 was defined as 100%, the rate of inhibition of increase (%) at each dose of the test compound was calculated.
row,SMILES,inhibition in vivo at 1 %
1,"CC1(C)c2[nH]nc(NC(=O)C3([Si](C)(C)C)CCC3)c2CN1C(=O)N[C@H](CO)c1ccccc1 [IV-114, (S)—N-(2-Hydroxy-1-phenylethyl)-6,6-dimethyl-3-[1-(trimethylsilyl)cyclobutanecarboxamido]-4,6-dihydropyrrolo[3,4-c]pyrazole-5(1H)-carboxamide]",≥ 50%
2,"COC[C@@H](NC(=O)N1Cc2c(NC(=O)C3([Si](C)(C)C)CCC3)n[nH]c2C1(C)C)c1ccccc1 [IV-123, (S)—N-(2-Methoxy-1-phenylethyl)-6,6-dimethyl-3-[1-(trimethylsilyl)cyclobutanecarboxamido]-4,6-dihydropyrrolo[3,4-c]pyrazole-5(1H)-carboxamide]",≥ 50%
3,"CC1(C)c2[nH]nc(NC(=O)C3([Si](C)(C)C)CCC3)c2CN1C(=O)N[C@H](CCO)c1ccccc1 [IV-227, (R)—N-(3-Hydroxy-1-phenylpropyl)-6,6-dimethyl-3-[1-(trimethylsilyl)cyclobutanecarboxamido]-4,6-dihydropyrrolo[3,4-c]pyrazole-5(1H)-carboxamide]",≥ 50%

# Target: T1, CDK2 (Homo sapiens, UniProt P24941)
# T1 construct: purchased Invitrogen Corp. PV3267
# Assay: CDK2 enzyme inhibition test
# Assay type: biochemical
# Conditions: Ki=IC50/(1+S/Km); 33P bound to MBP, [γ-33P]ATP, 30° C. for 20 minutes; read-out: Ki value of CDK2 inhibitory activity
# In short: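 Commercial CDK2 with MBP substrate and [γ-33P]ATP (500 μM solution, before mixing) in HEPES pH 7.4 buffer with DTT, Triton X-100 and MgCl2; 20 min at 30 °C. TCA-precipitated 33P-MBP counted by liquid scintillation; IC50 from inhibition of 33P incorporation, Ki = IC50/(1+S/Km).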
row,SMILES,Ki
1,"CC1(C)c2[nH]nc(NC(=O)C(C)(C)[Si](C)(C)C)c2CN1C(=O)N[C@H](CO)c1ccccc1 [II-114, (S)—N-(2-Hydroxy-1-phenylethyl)-6,6-dimethyl-3-[2-methyl-2-(trimethylsilyl)propanamido]-4,6-dihydropyrrolo[3,4-c]pyrazole-5(1H)-carboxamide]",≥ 1000 nM
2,"CC[Si](C)(C)C1(C(=O)Nc2n[nH]c3c2CN(C(=O)N[C@H](CO)c2ccccc2)C3(C)C)CCC1 [IV-117, (S)-3-[1-(Ethyldimethylsilyl)cyclobutanecarboxamido]-N-(2-hydroxy-1-phenylethyl)-6,6-dimethyl-4,6-dihydropyrrolo[3,4-c]pyrazole-5(1H)-carboxamide]",≥ 1000 nM
3,"CC1(C)c2[nH]nc(NC(=O)C3([Si](C)(C)C)CCC3)c2CN1C(=O)N[C@H](CCCCO)c1ccccc1 [IV-291, (R)—N-(5-Hydroxy-1-phenylpentyl)-6,6-dimethyl-3-[1-(trimethylsilyl)cyclobutanecarboxamido]-4,6-dihydropyrrolo[3,4-c]pyrazole-5(1H)-carboxamide]",≥ 1000 nM
4,"CC1(C)c2[nH]nc(NC(=O)C3([Si](C)(C)C)CCC3)c2CN1C(=O)NCCO [IV-438, N-(2-Hydroxyethyl)-6,6-dimethyl-3-[1-(trimethylsilyl)cyclobutanecarboxamido]-4,6-dihydropyrrolo[3,4-c]pyrazole-5(1H)-carboxamide]",≥ 1000 nM
5,"C[C@@H](CO)NC(=O)N1Cc2c(NC(=O)C3([Si](C)(C)C)CCC3)n[nH]c2C1(C)C [IV-455, (S)—N-(1-Hydroxypropan-2-yl)-6,6-dimethyl-3-[1-(trimethylsilyl)cyclobutanecarboxamido]-4,6-dihydropyrrolo[3,4-c]pyrazole-5(1H)-carboxamide]",≥ 1000 nM
6,"CC(C)[C@@H](CO)NC(=O)N1Cc2c(NC(=O)C3([Si](C)(C)C)CCC3)n[nH]c2C1(C)C [IV-475, (S)—N-(1-Hydroxy-3-methylbutan-2-yl)-6,6-dimethyl-3-[1-(trimethylsilyl)cyclobutanecarboxamido]-4,6-dihydropyrrolo[3,4-c]pyrazole-5(1H)-carboxamide]",≥ 1000 nM
7,"CC1(C)c2[nH]nc(NC(=O)C3([Si](C)(C)C)CCC3)c2CN1C(=O)N[C@H](CO)C1CCCCC1 [IV-495, (S)—N-(1-Cyclohexyl-2-hydroxyethyl)-6,6-dimethyl-3-[1-(trimethylsilyl)cyclobutanecarboxamido]-4,6-dihydropyrrolo[3,4-c]pyrazole-5(1H)-carboxamide]",≥ 1000 nM

# The remaining lines, values ahead:
row,Ki,SMILES
1,≥ 1000 nM,"CC1(C)c2[nH]nc(NC(=O)C3([Si](C)(C)C)CC3)c2CN1C(=O)N[C@H](CO)c1ccccc1 [III-114, (S)—N-(2-Hydroxy-1-phenylethyl)-6,6-dimethyl-3-[1-(trimethylsilyl)cyclopropanecarboxamido]-4,6-dihydropyrrolo[3,4-c]pyrazole-5(1H)-carboxamide]"
2,≥ 1000 nM,"CC1(C)c2[nH]nc(NC(=O)C3([Si](C)(C)C)CCC3)c2CN1C(=O)O[C@H](CO)c1ccccc1 [IV-2, (S)-2-Hydroxy-1-phenylethyl 6,6-dimethyl-3-[1-(trimethylsilyl)cyclobutanecarboxamido]-4,6-dihydropyrrolo[3,4-c]pyrazole-5(1H)-carboxylate]"
3,≥ 1000 nM,"CC1(C)c2[nH]nc(NC(=O)C3([Si](C)(C)C)CCC3)c2CN1C(=O)N[C@H](CO)c1ccccc1 [IV-114, (S)—N-(2-Hydroxy-1-phenylethyl)-6,6-dimethyl-3-[1-(trimethylsilyl)cyclobutanecarboxamido]-4,6-dihydropyrrolo[3,4-c]pyrazole-5(1H)-carboxamide]"
4,≥ 1000 nM,"CN(C(=O)N1Cc2c(NC(=O)C3([Si](C)(C)C)CCC3)n[nH]c2C1(C)C)[C@H](CO)c1ccccc1 [IV-119, (S)—N-(2-Hydroxy-1-phenylethyl)-N,6,6-trimethyl-3-[1-(trimethylsilyl)cyclobutanecarboxamido]-4,6-dihydropyrrolo[3,4-c]pyrazole-5(1H)-carboxamide]"
5,≥ 1000 nM,"COC[C@@H](NC(=O)N1Cc2c(NC(=O)C3([Si](C)(C)C)CCC3)n[nH]c2C1(C)C)c1ccccc1 [IV-123, (S)—N-(2-Methoxy-1-phenylethyl)-6,6-dimethyl-3-[1-(trimethylsilyl)cyclobutanecarboxamido]-4,6-dihydropyrrolo[3,4-c]pyrazole-5(1H)-carboxamide]"
6,≥ 1000 nM,"CC(C)(O)[C@@H](NC(=O)N1Cc2c(NC(=O)C3([Si](C)(C)C)CCC3)n[nH]c2C1(C)C)c1ccccc1 [IV-171, (S)—N-(2-Hydroxy-2-methyl-1-phenylpropyl)-6,6-dimethyl-3-[1-(trimethylsilyl)cyclobutanecarboxamido]-4,6-dihydropyrrolo[3,4-c]pyrazole-5(1H)-carboxamide]"
7,≥ 1000 nM,"CC1(C)c2[nH]nc(NC(=O)C3([Si](C)(C)C)CCC3)c2CN1C(=O)N[C@H](CCO)c1ccccc1 [IV-227, (R)—N-(3-Hydroxy-1-phenylpropyl)-6,6-dimethyl-3-[1-(trimethylsilyl)cyclobutanecarboxamido]-4,6-dihydropyrrolo[3,4-c]pyrazole-5(1H)-carboxamide]"
8,≥ 1000 nM,"CC1(C)c2[nH]nc(NC(=O)C3([Si](C)(C)C)CCC3)c2CN1C(=O)N[C@H](CCCO)c1ccccc1 [IV-283, (R)—N-(4-Hydroxy-1-phenylbutyl)-6,6-dimethyl-3-[1-(trimethylsilyl)cyclobutanecarboxamido]-4,6-dihydropyrrolo[3,4-c]pyrazole-5(1H)-carboxamide]"
9,≥ 1000 nM,"CC1(C)c2[nH]nc(NC(=O)C3([Si](C)(C)C)CCC3)c2CN1C(=O)NCC(O)c1ccccc1 (centres unmarked) [IV-450, N-(2-Hydroxy-2-phenylethyl)-6,6-dimethyl-3-[1-(trimethylsilyl)cyclobutanecarboxamido]-4,6-dihydropyrrolo[3,4-c]pyrazole-5(1H)-carboxamide]"
10,≥ 1000 nM,"CC1(C)c2[nH]nc(NC(=O)C3([Si](C)(C)C)CCC3)c2CN1C(=O)C(CO)c1ccccc1 (centres unmarked) [IV-632, N-[5-(3-Hydroxy-2-phenylpropanoyl)-6,6-dimethyl-1,4,5,6-tetrahydropyrrolo[3,4-c]pyrazol-3-yl]-1-(trimethylsilyl)cyclobutanecarboxamide]"
